Results as given in patent publication US11759462B2, “Spirocyclic compounds as tryptophan hydroxylase inhibitors” (priority 2013, dated 2023).
pIC50: −log10 of the molar value. Where two headings read alike, the source gives them in different places.

Biological target: T1, Recombinant human TPH1 (MBP tagged) (Homo sapiens, UniProt P17752)
T1 construct: cloning full length human TPH1 cDNA in to a bacterial pMAL-c5E expression vector; made in house; host or cells: E. coli BL21 (DE3)
T1 sequence (P17752 1-444): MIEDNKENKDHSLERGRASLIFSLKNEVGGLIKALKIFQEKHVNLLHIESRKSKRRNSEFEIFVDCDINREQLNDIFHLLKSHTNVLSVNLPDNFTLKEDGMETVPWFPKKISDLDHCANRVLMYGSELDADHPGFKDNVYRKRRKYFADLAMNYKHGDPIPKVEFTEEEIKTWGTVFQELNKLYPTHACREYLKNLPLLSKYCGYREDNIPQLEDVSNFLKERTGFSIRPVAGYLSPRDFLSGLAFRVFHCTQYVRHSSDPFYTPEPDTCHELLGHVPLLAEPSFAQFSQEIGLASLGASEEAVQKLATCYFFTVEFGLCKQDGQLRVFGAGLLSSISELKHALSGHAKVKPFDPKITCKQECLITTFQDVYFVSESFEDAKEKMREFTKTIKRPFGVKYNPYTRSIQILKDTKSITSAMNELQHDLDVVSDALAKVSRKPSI
Experiment: TPH1 in vitro inhibition assay (kinetic fluorescence)
Format: biochemical
Summary of the method: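 Final mix: 15 nM MBP-TPH1, 30 μM Trp, 36 μM 6-methyltetrahydropterin, 25 μM ferrous ammonium sulfate, 50 mM MES pH 7.1, 1% DMSO, room temperature.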

[1] = read-out: TPH1 Range (TPH1 inhibition IC50)
[2] = TPH1 Range (TPH1 inhibition IC50)

Row | pIC50 [1] | SMILES | pIC50 [2]
1 | 5.52 to 6.52 | Nc1nc(O[C@H](c2ccc(-c3cccc(CO)c3)cc2)C(F)(F)F)cc(N2CCC3(CC2)CN[C@H](C(=O)O)C3)n1 [Example 55bt, (S)-8-(2-amino-6-((R)-2,2,2-trifluoro-1-(3′-(hydroxymethyl)-[1,1′-biphenyl]-4-yl)ethoxy)pyrimidin-4-yl)-2,8-diazaspiro[4.5]decane-3-carboxylic acid] | 
2 | > 7.30 | Nc1nc(O[C@H](c2ccc(-c3ccc4c(c3)CCCO4)cc2)C(F)(F)F)cc(N2CCC3(CC2)CN[C@H](C(=O)O)C3)n1 [Example 55dq, (S)-8-(2-amino-6-((R)-1-(4-(chroman-6-yl)phenyl)-2,2,2-trifluoroethoxy)pyrimidin-4-yl)-2,8-diazaspiro[4.5]decane-3-carboxylic acid] | 
3 | 6.52 to 7.30 | Cc1ccn(-c2cc(-c3cc(C(F)(F)F)cc(C(F)(F)F)c3)ccc2[C@@H](Oc2cc(N3CCC4(CC3)CN[C@H](C(=O)O)C4)nc(N)n2)C(F)(F)F)n1 [Example 1bf, (S)-8-(2-amino-6-((R)-2,2,2-trifluoro-1-(3-(3-methyl-1H-pyrazol-1-yl)-3′,5′-bis(trifluoromethyl)-[1,1′-biphenyl]-4-yl)ethoxy)pyrimidin-4-yl)-2,8-diazaspiro[4.5]decane-3-carboxylic acid] | 
4 | > 7.30 | CCOc1ccc(-c2ccc([C@@H](Oc3cc(N4CCC5(CC4)CN[C@H](C(=O)O)C5)nc(N)n3)C(F)(F)F)c(-n3ccc(C)n3)c2)cc1 [Example 1q, (S)-8-(2-amino-6-((R)-1-(4′-ethoxy-3-(3-methyl-1H-pyrazol-1-yl)-[1,1′-biphenyl]-4-yl)-2,2,2-trifluoroethoxy)pyrimidin-4-yl)-2,8-diazaspiro[4.5]decane-3-carboxylic acid] | 
5 | 6.52 to 7.30 | CCc1cccc(-c2cc(Cl)ccc2[C@@H](Oc2cc(N3CCC4(CC3)CN[C@H](C(=O)O)C4)nc(N)n2)C(F)(F)F)c1 [Example 34cd, (S)-8-(2-amino-6-((R)-1-(5-chloro-3′-ethyl-[1,1′-biphenyl]-2-yl)-2,2,2-trifluoroethoxy)pyrimidin-4-yl)-2,8-diazaspiro[4.5]decane-3-carboxylic acid] | 
6 | 5.52 to 6.52 | Cc1cccc(-c2ccc([C@@H](Oc3cc(N4CCC5(CC4)CN[C@H](C(=O)O)C5)nc(N)n3)C(F)(F)F)cc2)c1C [Example 55cn, (S)-8-(2-amino-6-((R)-1-(2′,3′-dimethyl-[1,1′-biphenyl]-4-yl)-2,2,2-trifluoroethoxy)pyrimidin-4-yl)-2,8-diazaspiro[4.5]decane-3-carboxylic acid] | 
7 | 6.52 to 7.30 | Cc1ccn(-c2cc(C(=O)OC(C)(C(F)(F)F)C(F)(F)F)ccc2[C@@H](Oc2cc(N3CCC4(CC3)CN[C@H](C(=O)O)C4)nc(N)n2)C(F)(F)F)n1 [Example 18a, (S)-8-(2-amino-6-((R)-2,2,2-trifluoro-1-(4-(((1,1,1,3,3,3-hexafluoro-2-methylpropan-2-yl)oxy)carbonyl)-2-(3-methyl-1H-pyrazol-1-yl)phenyl)ethoxy)pyrimidin-4-yl)-2,8-diazaspiro[4.5]decane-3-carboxylic acid] | 
8 |  | Nc1nc(O[C@H](c2ccc(Cl)cc2-c2cc(F)cc(F)c2)C(F)(F)F)cc(N2CCC3(CC2)CN[C@H](C(=O)O)C3)n1 [Example 34au, (S)-8-(2-amino-6-((R)-1-(5-chloro-3′,5′-difluoro-[1,1′-biphenyl]-2-yl)-2,2,2-trifluoroethoxy)pyrimidin-4-yl)-2,8-diazaspiro[4.5]decane-3-carboxylic acid] | > 7.30
9 | 5.52 to 6.52 | CC(C)c1cccc(-c2ccc([C@@H](Oc3cc(N4CCC5(CC4)CN[C@H](C(=O)O)C5)nc(N)n3)C(F)(F)F)cc2)c1 [Example 55ck, (S)-8-(2-amino-6-((R)-2,2,2-trifluoro-1-(3′-isopropyl-[1,1′-biphenyl]-4-yl)ethoxy)pyrimidin-4-yl)-2,8-diazaspiro[4.5]decane-3-carboxylic acid] | 
10 | 6.52 to 7.30 | Cc1ccn(-c2cc(C(N)=O)ccc2[C@@H](Oc2cc(N3CCC4(CC3)CN[C@H](C(=O)O)C4)nc(N)n2)C(F)(F)F)n1 [Example 15, (S)-8-(2-amino-6-((R)-1-(4-carbamoyl-2-(3-methyl-H-pyrazol-1-yl)phenyl)-2,2,2-trifluoroethoxy)pyrimidin-4-yl)-2,8-diazaspiro[4.5]decane-3-carboxylic acid] | 
11 | 6.52 to 7.30 | CCCCS(=O)(=O)c1cccc(-c2cc(Cl)ccc2[C@@H](Oc2cc(N3CCC4(CC3)CN[C@H](C(=O)O)C4)nc(N)n2)C(F)(F)F)c1 [Example 34l, (S)-8-(2-amino-6-((R)-1-(3′-(butylsulfonyl)-5-chloro-[1,1′-biphenyl]-2-yl)-2,2,2-trifluoroethoxy)pyrimidin-4-yl)-2,8-diazaspiro[4.5]decane-3-carboxylic acid] | 
12 | > 7.30 | Cc1ccn(-c2cc(-c3ccc(OCC(C)(C)C)cc3)ccc2[C@@H](Oc2cc(N3CCC4(CC3)CN[C@H](C(=O)O)C4)nc(N)n2)C(F)(F)F)n1 [Example 1cn, (S)-8-(2-amino-6-((R)-2,2,2-trifluoro-1-(3-(3-methyl-1H-pyrazol-1-yl)-4′-(neopentyloxy)-[1,1′-biphenyl]-4-yl)ethoxy)pyrimidin-4-yl)-2,8-diazaspiro[4.5]decane-3-carboxylic acid] | 
13 | > 7.30 | Cc1ccn(-c2cc(-c3ccc(C(N)=O)cc3)ccc2[C@@H](Oc2cc(N3CCC4(CC3)CN[C@H](C(=O)O)C4)nc(N)n2)C(F)(F)F)n1 [Example 1cg, (S)-8-(2-amino-6-((R)-1-(4′-carbamoyl-3-(3-methyl-1H-pyrazol-1-yl)-[1,1′-biphenyl]-4-yl)-2,2,2-trifluoroethoxy)pyrimidin-4-yl)-2,8-diazaspiro[4.5]decane-3-carboxylic acid] | 
14 | 6.52 to 7.30 | Cc1ccn(-c2cc(-c3cc(F)c(F)c(F)c3)ccc2[C@@H](Oc2cc(N3CCC4(CC3)CN[C@H](C(=O)O)C4)nc(N)n2)C(F)(F)F)n1 [Example 1bo, (S)-8-(2-amino-6-((R)-2,2,2-trifluoro-1-(3′,4′,5′-trifluoro-3-(3-methyl-1H-pyrazol-1-yl)-[1,1′-biphenyl]-4-yl)ethoxy)pyrimidin-4-yl)-2,8-diazaspiro[4.5]decane-3-carboxylic acid] | 
15 | > 7.30 | CCCc1ccc(-n2ccc(C)n2)c([C@@H](Oc2cc(N3CCC4(CC3)CN[C@H](C(=O)O)C4)nc(N)n2)C(F)(F)F)c1 [Example 22b] | 
16 |  | Cn1ncc2cc(-c3ccc([C@@H](Oc4cc(N5CCC6(CC5)CN[C@H](C(=O)O)C6)nc(N)n4)C(F)(F)F)cc3)ccc21 [Example 55b, (S)-8-(2-amino-6-((R)-2,2,2-trifluoro-1-(4-(1-methyl-1H-indazol-5-yl)phenyl)ethoxy)pyrimidin-4-yl)-2,8-diazaspiro[4.5]decane-3-carboxylic acid] | > 7.30
17 | > 7.30 | CC(=O)N1CC=C(c2ccc([C@@H](Oc3cc(N4CCC5(CC4)CN[C@H](C(=O)O)C5)nc(N)n3)C(F)(F)F)c(-n3ccc(C)n3)c2)CC1 [Example 1k, (S)-8-(6-((R)-1-(4-(1-acetyl-1,2,3,6-tetrahydropyridin-4-yl)-2-(3-methyl-1H-pyrazol-1-yl)phenyl)-2,2,2-trifluoroethoxy)-2-aminopyrimidin-4-yl)-2,8-diazaspiro[4.5]decane-3-carboxylic acid] | 
18 | > 7.30 | Nc1nc(O[C@H](c2ccc(-c3ccc4ccncc4c3)cc2)C(F)(F)F)cc(N2CCC3(CC2)CN[C@H](C(=O)O)C3)n1 [Example 55be, (S)-8-(2-amino-6-((R)-2,2,2-trifluoro-1-(4-(isoquinolin-7-yl)phenyl)ethoxy)pyrimidin-4-yl)-2,8-diazaspiro[4.5]decane-3-carboxylic acid] | 
19 | 5.52 to 6.52 | Nc1nc(O[C@H](c2ccc(Cl)cc2-c2cccc(C(=O)O)c2)C(F)(F)F)cc(N2CCC3(CC2)CN[C@H](C(=O)O)C3)n1 [Example 34ab, (S)-8-(2-amino-6-((R)-1-(3′-carboxy-5-chloro-[1,1′-biphenyl]-2-yl)-2,2,2-trifluoroethoxy)pyrimidin-4-yl)-2,8-diazaspiro[4.5]decane-3-carboxylic acid] | 
20 | 6.52 to 7.30 | Cc1ccc(-c2ccc([C@@H](Oc3cc(N4CCC5(CC4)CN[C@H](C(=O)O)C5)nc(N)n3)C(F)(F)F)cc2)cc1C [Example 55ch, (S)-8-(2-amino-6-((R)-1-(3′,4′-dimethyl-[1,1′-biphenyl]-4-yl)-2,2,2-trifluoroethoxy)pyrimidin-4-yl)-2,8-diazaspiro[4.5]decane-3-carboxylic acid] | 
21 | > 7.30 | Cc1ccn(-c2cc(-c3ccc4ncccc4c3)ccc2[C@@H](Oc2cc(N3CCC4(CC3)CN[C@H](C(=O)O)C4)nc(N)n2)C(F)(F)F)n1 [Example 1ad, (S)-8-(2-amino-6-((R)-2,2,2-trifluoro-1-(2-(3-methyl-1H-pyrazol-1-yl)-4-(quinolin-6-yl)phenyl)ethoxy)pyrimidin-4-yl)-2,8-diazaspiro[4.5]decane-3-carboxylic acid] | 

Row | SMILES | pIC50 [1] | pIC50 [2]
22 | Cc1ccn(-c2cc(-c3ccc(OCC(C)C)cc3)ccc2[C@@H](Oc2cc(N3CCC4(CC3)CN[C@H](C(=O)O)C4)nc(N)n2)C(F)(F)F)n1 [Example 1cl, (S)-8-(2-amino-6-((R)-2,2,2-trifluoro-1-(4′-isobutoxy-3-(3-methyl-1H-pyrazol-1-yl)-[1,1′-biphenyl]-4-yl)ethoxy)pyrimidin-4-yl)-2,8-diazaspiro[4.5]decane-3-carboxylic acid] | > 7.30 | 
